Test results: patent publication US20220245798A1, “TISSUE STEM CELL COUNTING […] USES THEREOF” (Asymmetrex LLC, priority 2021, published 2022)

Tested on: HSCs in CD34+-selected normal human bone marrow cells
Experiment: PSCK-RIFS tissue stem cell counting and cell kinetics determination, serial culture of BM-CD34+ cells with stem cell-active agents
Format: cell-based
Conditions: for Committed Progenitor Cells CC Time / Stem Cells Asym CC Time / Stem Cells SSR Rate, RS / Stem Cells Sym CC Time / Stem Cells Initial Fraction: BM-CD34+ serial culture, agent supplemented at all times; for Committed Progenitor Cells CC Time / Stem Cells Asym CC Time / Stem Cells SSR Rate, RS / Stem Cells Sym CC Time: mean of n=5; for Stem Cells Initial Fraction: mean of n=5 PSCK-RIFS determinations
Excerpt: Strain WI-38 pre-senescent human lung cells were purchased from the American Type Culture Collection (Manassas, Va., USA; ATCC #CCL-75; passage 15). Expanded human liver stem cell strain SACK-XS 12(3) was purchased from Kerafast (Boston, Mass., USA; #EJS002). CD34+-selected normal human bone marrow cells were purchased from the ATCC (#PCS-800-012). CD34+-selected human umbilical cord blood cells were purchased from STEMCELL Technologies, Inc. (Cat#70008; Cambridge, Mass.).
Expanded human liver stem cell strain SACK-XS 12(3) cells were cultured in the supplier's recommended culture medium without inclusion of xanthosine. CD34+-selected normal human bone marrow cells were cultured in StemSpan™ SFEM II medium (STEMCELL Technologies, Inc., Cambridge, Mass., USA; #09655) supplemented with StemSpan™ CD34+ Expansion Supplement (STEMCELL Technologies, Inc., #02691). SACK-XS 12(3) serial cultures were initiated in 6-well plates with 325,000 viable cells. CD34+ cell serial cultures were initiated as 24-well suspension cultures with 65,000 viable cells. For both cell types, ⅓ of total cells were transferred to a new culture well every 96±4 hour interval. Tested agents were supplemented at all times during the culture period.
Based on the determined stem cell symmetric self-renewal frequency (RS), in the early studies presented herein a correction was applied to account for this effect. The correction is determined by the following Equation 1:
NSo corrected=NS1st interval/(RSe^kt+RA−RDS) (Equation 1)
In Equation 1, NS1st interval=NS peak value determined from the initial interval of PSCK; t=the time to the first interval NS peak in the respective simulation; k=ln 2/GTS, the mean generation time for symmetrically self-renewing stem cells; RS, RA, and RDS are mean cell kinetics factors determined by the originating PSCK-RIFS analysis (See EXAMPLE 4). The mean of 10 independent PSCK NS simulations was used for correction. Equation 1 was applied to determine the initial stem cell fraction whenever a significant RS value was found.
The simulation confidence level was estimated from the root mean squared error of the comparison of simulated cumulative population doubling (CPD) data to experimental CPD data. Student's t-test (2-tailed) was used to calculate p-values for confidence for cell kinetics factors determined by the PSCK-RIFS software (See also EXAMPLE 4) with respect to 0.0 and their 95% confidence intervals. Student's t-test (2-tailed) was also used to calculate p-values for confidence for differences in the value of cell kinetics factors derived under different culture conditions.
FIGS. 1 and 11 outline the application of the PSCK-RIFS software. A tissue cell preparation of interest is first counted (including viable cell determination; NC in Table 5) and used to initiate serial cultures, typically in triplicate.
At an experimenter defined interval (SPLI in Table 5), cultures are counted—including viable cell count—and a constant fraction of the cells or number of the cells is transferred to a new culture dish of the same type (FIG. 11). The PSCK software is designed to be versatile for accommodating different formats for the culture time period and/or the number of cells transferred. The total cell count data are transformed into plots of cumulative population doublings (CPD); and the viable cell fraction is used to estimate the dead cell fractions for transient cells (RDT in Table 5) and terminal cells (RDTM in Table 5), which are similarly very abundant during most of the culture period.
FIG. 1 depicts the various inputs that are used by the PSCK software to calculate CPD curve simulations for the period defined by the experimental CPD data. Using the cellular model illustrated in FIG. 1, the software inputs measured values (“m” superscripted in FIG. 1) and discovered factors (“d” superscripted in FIG. 1) obtained from the RIFS software. An important aspect of the PSCK-RIFS method is that there is no underlying mathematical algorithm. […]

| Compound | Committed Progenitor Cells CC Time | Stem Cells Asym CC Time | Stem Cells SSR Rate, RS | Stem Cells Sym CC Time | Stem Cells Initial Fraction | change in determined HSC number (within the first four days of culture) | change in stem cell fraction of supplemented cultures (BM-CD34+ cultures) | increase in HSC number (after only 4 days of culture) [fold] | RS, rate of symmetric self-renewal, of HSC divisions (increase from undetectable, p=0.037) [%] |
| --- | --- | --- | --- | --- | --- | --- | --- | --- | --- |
| O=NN(CCCl)C(=O)NCCCl [BCNU, bis-chloroethylnitrosourea] | 6.4 h (NS) | 7.6 (NS) h | 0.0 (NS) | 8.2 h (NS) | 1.3 × 10^−4 (0.001) | decrease | – | – | – |
| O=c1[nH]c(=O)c2ncn([C@@H]3O[C@H](CO)[C@@H](O)[C@H]3O)c2[nH]1 [Xanthosine, xanthosine] | 8.2 h (NS) | 6.6 h (NS) | 3.2 × 10^−3 (0.037) | 9.4 h (NS) | 3.5 × 10^−3 (0.001) | – | increases | 10 | 0.32 |
